This note sets out measurements from ChEMBL document CHEMBL3774360, “Potent multitarget FAAH-COX inhibitors: Design and structure-activity relationship studies” (Eur J Med Chem, 2016).

SMILES strings stand for the structures.

Assay [1] addresses T1, Prostaglandin G/H synthase 2 (Homo sapiens, UniProt P35354).
T1 sequence (P35354 whole entry): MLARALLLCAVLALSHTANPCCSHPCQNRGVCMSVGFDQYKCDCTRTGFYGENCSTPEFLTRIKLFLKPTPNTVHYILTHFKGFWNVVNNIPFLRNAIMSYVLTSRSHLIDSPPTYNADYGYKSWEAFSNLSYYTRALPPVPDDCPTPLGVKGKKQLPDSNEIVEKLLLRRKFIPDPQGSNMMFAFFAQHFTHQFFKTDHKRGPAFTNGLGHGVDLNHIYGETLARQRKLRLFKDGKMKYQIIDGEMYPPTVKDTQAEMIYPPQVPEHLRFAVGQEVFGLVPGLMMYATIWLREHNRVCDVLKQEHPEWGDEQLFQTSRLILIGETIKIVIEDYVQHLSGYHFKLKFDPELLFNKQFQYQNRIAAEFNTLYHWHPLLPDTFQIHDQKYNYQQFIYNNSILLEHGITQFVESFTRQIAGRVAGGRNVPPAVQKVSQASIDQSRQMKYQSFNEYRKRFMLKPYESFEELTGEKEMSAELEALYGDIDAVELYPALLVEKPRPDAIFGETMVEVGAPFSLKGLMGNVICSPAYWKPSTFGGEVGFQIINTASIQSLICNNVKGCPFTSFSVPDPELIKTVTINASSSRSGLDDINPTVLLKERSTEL
As to the kind of experiment: Inhibition of recombinant human COX2 assessed as production of PGF2-alpha preincubated with compound followed by the addition of 5 uM arachidonic acid as substrate by enzyme immunoassay.

Assay [2] deals with T2, Fatty-acid amide hydrolase 1 (Rattus norvegicus, UniProt P97612).
T2 sequence (P97612 whole entry): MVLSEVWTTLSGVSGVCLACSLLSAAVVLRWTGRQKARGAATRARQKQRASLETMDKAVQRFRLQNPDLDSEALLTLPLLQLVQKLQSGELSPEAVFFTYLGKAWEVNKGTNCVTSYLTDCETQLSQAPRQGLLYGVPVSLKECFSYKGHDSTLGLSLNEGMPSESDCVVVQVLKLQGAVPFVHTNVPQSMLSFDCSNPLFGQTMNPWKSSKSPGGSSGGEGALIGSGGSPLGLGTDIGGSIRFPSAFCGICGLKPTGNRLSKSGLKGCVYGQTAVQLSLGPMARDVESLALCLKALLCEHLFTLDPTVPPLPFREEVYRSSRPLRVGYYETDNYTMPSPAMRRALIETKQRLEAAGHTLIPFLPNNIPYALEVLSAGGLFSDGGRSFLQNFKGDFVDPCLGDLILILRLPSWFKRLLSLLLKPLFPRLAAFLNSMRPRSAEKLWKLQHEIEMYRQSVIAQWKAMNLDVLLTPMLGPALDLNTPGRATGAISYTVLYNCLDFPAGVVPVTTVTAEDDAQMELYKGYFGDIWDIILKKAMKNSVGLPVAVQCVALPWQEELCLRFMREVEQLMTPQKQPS
As to the kind of experiment: Inhibition of FAAH in Sprague-Dawley rat brain homogenates preincubated for 10 mins followed by addition of substrate measured after 30 mins by liquid scintillation counting. Type of assay: tissue-based.

Assay [3] concerns the target T3, Prostaglandin G/H synthase 1 (Ovis aries, UniProt P05979).
T3 sequence (P05979 whole entry): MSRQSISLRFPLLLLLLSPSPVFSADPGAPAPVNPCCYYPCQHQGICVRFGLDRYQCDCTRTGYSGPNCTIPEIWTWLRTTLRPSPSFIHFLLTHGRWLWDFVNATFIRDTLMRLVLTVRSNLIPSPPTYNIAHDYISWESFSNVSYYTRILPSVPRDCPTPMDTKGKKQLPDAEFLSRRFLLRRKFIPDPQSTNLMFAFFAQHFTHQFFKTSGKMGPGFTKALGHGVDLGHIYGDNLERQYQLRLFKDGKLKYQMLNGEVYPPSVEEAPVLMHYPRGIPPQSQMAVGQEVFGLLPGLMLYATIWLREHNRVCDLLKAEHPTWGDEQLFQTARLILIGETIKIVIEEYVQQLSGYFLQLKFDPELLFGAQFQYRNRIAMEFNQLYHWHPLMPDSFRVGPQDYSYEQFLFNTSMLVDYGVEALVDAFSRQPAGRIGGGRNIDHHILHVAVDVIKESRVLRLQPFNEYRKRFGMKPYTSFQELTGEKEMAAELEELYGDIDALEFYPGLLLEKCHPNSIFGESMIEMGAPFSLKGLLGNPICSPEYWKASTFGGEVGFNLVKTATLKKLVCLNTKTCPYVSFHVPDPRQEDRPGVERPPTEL
Kind of assay: Inhibition of ovine COX1 assessed as production of PGF2-alpha preincubated with compound followed by the addition of 5 uM arachidonic acid as substrate by enzyme immunoassay.

Broadly, the IC50 is the midpoint of a concentration-inhibition curve. `CCCCCCNC(=O)Oc1cccc(-c2ccc(C(C)C(=O)O)cc2)c1` (racemic): the IC50 turned out to be 0.69 µM in assay [1], 0.003 µM in assay [2] and 0.054 µM in assay [3].
On the same counts, the results for `CCCCCCNC(=O)Oc1cccc(-c2ccc(C(=O)O)cc2F)c1` are over 100 µM, 0.085 µM and over 100 µM.
Take `CCCCCCNC(=O)Oc1cccc(-c2ccc(C(C)CO)cc2F)c1` (racemic): the IC50 in assay [1] was over 100 µM; in assay [2], 0.003 µM.
Regarding `CCCCCCNC(=O)Oc1cccc(-c2ccc(C(C)C(=O)O)cc2C(F)(F)F)c1` (racemic), the values for the IC50 in assay [1], in assay [2] and in assay [3] were 0.2 µM, 0.005 µM and 0.01 µM, respectively.
`NC(=O)c1cccc(-c2cccc(OC(=O)NC3CCCCC3)c2)c1` [URB-597]: the IC50 in assay [1] and in assay [3] was over 100 µM each time.
Consider `CC(C(=O)O)c1ccc(-c2cccc(OC(=O)NCCc3ccccc3)c2)c(F)c1` (racemic), for which the IC50 in assay [1] is over 100 µM.
In the case of `CC(C(=O)O)c1ccc(-c2cccc(OC(=O)Nc3ccccc3)c2)c(F)c1` (racemic), the results for the IC50 in assay [1], in assay [2] and in assay [3] were 2.7 µM, 41.2 µM and 0.27 µM, respectively.
With `CCCCCCNC(=O)Oc1cccc(-c2ccc(C(C)C(=O)O)cc2O)c1` (racemic), the 50% inhibitory concentration (IC50) amounted to 13 µM in assay [1], 0.035 µM in assay [2] and 0.65 µM in assay [3].
`CCCCCCNC(=O)Oc1cccc(-c2ccc(C(C)C(=O)OC)cc2F)c1` (racemic): the IC50 was over 100 µM in assay [1], 0.052 µM in assay [2] and over 100 µM in assay [3].
For the molecule `CCCCCCNC(=O)Oc1cccc(-c2ccc(C(C)C(=O)O)cc2C)c1` (racemic), the IC50 in assay [1] is 1.4 µM; in assay [2], 0.01 µM; in assay [3] it was 0.011 µM.
For the molecule `CC(C(=O)O)c1ccc(-c2cccc(OC(=O)NC3CCCCC3)c2)c(F)c1` (racemic), the IC50 in assay [1] is over 100 µM.
Turning to `CC(C(=O)O)c1ccc(-c2cccc(OC(=O)NCC3CCCCC3)c2)c(F)c1` (racemic), the concentration for half-maximal inhibition (IC50) in assay [1] was over 100 µM.
In turn, `CCCCCCCCNC(=O)Oc1cccc(-c2ccc(C(C)C(=O)O)cc2F)c1` (racemic) returned an IC50 in assay [2] of 0.003 µM.
On to `CCCCCCNC(=O)Oc1cccc(-c2ccc(C)cc2F)c1`, for which the IC50 in assay [1] was over 100 µM; in assay [2], 0.026 µM; in assay [3] it was over 100 µM.
As to `CC(C(=O)O)c1ccc(-c2cccc(OC(=O)NC3CC3)c2)c(F)c1` (racemic), the 50% inhibitory concentration (IC50) in assay [1] is 74.3 µM; in assay [2] it was over 100 µM; in assay [3], 5.4 µM.
As for `CCCCCCNC(=O)Oc1cccc(-c2ccc([C@@H](C)C(=O)O)cc2F)c1`, the IC50 in assay [3] turned out to be 4 µM.
As to `CCCCCCNC(=O)Nc1cccc(-c2ccc(C(C)C(=O)O)cc2F)c1` (racemic), the half-maximal inhibitory concentration (IC50) in assay [1] turned out to be 0.56 µM; in assay [2] it was 88.4 µM; in assay [3], 0.014 µM.
As to `CC(C(=O)O)c1ccc(-c2cccc(OC(=O)NC3CCCC3)c2)c(F)c1` (racemic), the IC50 in assay [1] is over 100 µM.
For `CC(C(=O)O)c1ccc(-c2cccc(OC(=O)NC3CCC3)c2)c(F)c1` (racemic), the IC50 was over 100 µM in assay [1], 48.7 µM in assay [2] and 0.72 µM in assay [3].
In the case of `CCCCCCNC(=O)Oc1ccccc1-c1ccc(C(C)C(=O)O)cc1F` (racemic), in assay [1], the IC50 was over 100 µM.
Consider `CC(C)CNC(=O)Oc1cccc(-c2ccc(C(C)C(=O)O)cc2F)c1` (racemic), for which the figures for the 50% inhibitory concentration (IC50) in assay [1] and in assay [2] were over 100 µM and 4.1 µM, respectively.
On to `CC(C)NC(=O)Oc1cccc(-c2ccc(C(C)C(=O)O)cc2F)c1` (racemic), for which the 50% inhibitory concentration (IC50) in assay [1] is over 100 µM; in assay [2] it was over 100 µM; in assay [3], 3.9 µM.
For `CC(C(=O)O)c1ccc(-c2cccc(OC(=O)NCc3ccccc3)c2)c(F)c1` (racemic), the concentration for half-maximal inhibition (IC50) in assay [1] is over 100 µM.
Regarding `CCCCCCNC(=O)Oc1cccc(-c2ccc(C(C)C(=O)O)cc2N)c1` (racemic), the IC50 in assay [1] was determined as 12.1 µM; in assay [2], 0.049 µM; in assay [3], 0.22 µM.
Take `CCCCCCNC(=O)Oc1cccc(-c2ccc(C(C)C(=O)O)cc2[N+](=O)[O-])c1` (racemic): the IC50 was 0.93 µM in assay [1], 0.009 µM in assay [2] and 0.13 µM in assay [3].
In assay [2], `CC(C(=O)O)c1ccc(-c2ccccc2)c(F)c1` (stereo unspecified) [FLURBIPROFEN] had a 50% inhibitory concentration (IC50) of over 100 µM.
Consider `CCCCCCNC(=O)Oc1ccc(-c2ccc(C(C)C(=O)O)cc2F)cc1` (racemic), for which the concentration for half-maximal inhibition (IC50) is over 100 µM in assay [1], 0.068 µM in assay [2] and over 100 µM in assay [3].
With `CC(C(=O)O)c1ccc(-c2cccc(OC(=O)NCCCCc3ccccc3)c2)c(F)c1` (racemic), the IC50 in assay [1] was over 100 µM.
As to `CCCNC(=O)Oc1cccc(-c2ccc(C(C)C(=O)O)cc2F)c1` (racemic), the concentration for half-maximal inhibition (IC50) in assay [1] is over 100 µM; in assay [2] it was over 100 µM; in assay [3], 1.65 µM.
With `CCCCNC(=O)Oc1cccc(-c2ccc(C(C)C(=O)O)cc2F)c1` (racemic), the half-maximal inhibitory concentration (IC50) in assay [1] is over 100 µM.
With `CCCCCCNC(=O)Oc1cccc(-c2ccc(C(C)C(=O)O)cc2Cl)c1` (racemic), the IC50 amounted to 0.73 µM in assay [1], 0.023 µM in assay [2] and 0.009 µM in assay [3].
On the same counts, the results for `CCNC(=O)Oc1cccc(-c2ccc(C(C)C(=O)O)cc2F)c1` (racemic) are over 100 µM, over 100 µM and 2.1 µM.
